US20100305098A1, “METHODS OF USE” (priority 2007, published 2010)

Assays:
5-HT2C = molecular target: T1, 5-HT2C (Homo sapiens, UniProt P28335); experiment: FLIPR functional screen; type: cell-based; settings: antagonist mode
T1 construct: purchased Millipore (outsourced screen)

CYSLT2 = molecular target: T2, CYSLT2 (Homo sapiens, UniProt Q9NS75); experiment: FLIPR functional screen; type: cell-based; settings: antagonist mode
T2 construct: Millipore

GIPR = molecular target: T3, GIPR (Homo sapiens, UniProt P48546); experiment: FLIPR functional screen; type: cell-based; settings: antagonist mode
T3 construct: Millipore
T3 sequence (P48546 22-466, species assumed): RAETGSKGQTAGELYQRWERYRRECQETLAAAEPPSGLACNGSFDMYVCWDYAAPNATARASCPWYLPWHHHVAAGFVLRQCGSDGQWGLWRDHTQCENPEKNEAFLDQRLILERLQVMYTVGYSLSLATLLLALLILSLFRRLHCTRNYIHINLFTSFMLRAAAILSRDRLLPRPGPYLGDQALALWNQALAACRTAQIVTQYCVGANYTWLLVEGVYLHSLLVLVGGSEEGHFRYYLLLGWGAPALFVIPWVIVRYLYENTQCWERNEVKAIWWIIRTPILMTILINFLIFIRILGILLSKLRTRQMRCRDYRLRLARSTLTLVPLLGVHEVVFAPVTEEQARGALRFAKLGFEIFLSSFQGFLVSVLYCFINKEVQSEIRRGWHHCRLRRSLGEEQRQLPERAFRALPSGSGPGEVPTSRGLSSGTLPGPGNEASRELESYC

CCR8 = molecular target: T4, CCR8 (Homo sapiens, UniProt P51685); experiment: FLIPR functional screen; type: cell-based; settings: antagonist mode
T4 construct: Millipore

S1P3 = molecular target: T5, S1P3 (Homo sapiens, UniProt Q99500); experiment: FLIPR functional screen; type: cell-based; settings: antagonist mode
T5 construct: Millipore

S1P1 = molecular target: T6, S1P1 (Homo sapiens, UniProt P21453); experiment: FLIPR functional screen; type: cell-based; settings: antagonist mode
T6 construct: Millipore
T6 sequence (P21453 whole entry, species assumed): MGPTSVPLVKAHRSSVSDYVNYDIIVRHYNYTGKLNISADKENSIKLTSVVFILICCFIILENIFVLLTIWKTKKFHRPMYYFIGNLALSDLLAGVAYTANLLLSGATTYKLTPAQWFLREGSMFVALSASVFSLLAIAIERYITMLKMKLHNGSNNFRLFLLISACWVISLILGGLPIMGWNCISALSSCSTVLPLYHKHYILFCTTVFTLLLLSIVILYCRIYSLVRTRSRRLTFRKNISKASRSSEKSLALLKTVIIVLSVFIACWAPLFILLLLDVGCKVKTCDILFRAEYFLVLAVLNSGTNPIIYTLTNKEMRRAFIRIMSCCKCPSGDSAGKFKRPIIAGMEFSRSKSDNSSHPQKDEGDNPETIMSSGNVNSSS

CX3CR1 = molecular target: T7, CX3CR1 (Homo sapiens, UniProt P49238); experiment: FLIPR functional screen; type: cell-based; settings: antagonist mode
T7 construct: Millipore
T7 sequence (P49238 whole entry, species assumed): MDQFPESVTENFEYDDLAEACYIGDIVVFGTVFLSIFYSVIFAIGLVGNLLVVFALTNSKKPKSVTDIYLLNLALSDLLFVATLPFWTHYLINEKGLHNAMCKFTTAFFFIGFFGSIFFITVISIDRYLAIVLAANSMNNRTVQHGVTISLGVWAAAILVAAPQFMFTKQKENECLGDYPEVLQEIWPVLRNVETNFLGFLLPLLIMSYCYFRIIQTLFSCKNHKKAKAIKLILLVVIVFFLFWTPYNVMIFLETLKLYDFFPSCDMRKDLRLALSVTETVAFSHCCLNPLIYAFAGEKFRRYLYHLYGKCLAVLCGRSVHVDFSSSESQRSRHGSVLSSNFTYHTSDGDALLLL

CCR2B = molecular target: T8, CCR2B (Homo sapiens, UniProt P41597); experiment: FLIPR functional screen; type: cell-based; settings: antagonist mode
T8 construct: Millipore
T8 sequence (P41597 1-360 isoform P41597-2): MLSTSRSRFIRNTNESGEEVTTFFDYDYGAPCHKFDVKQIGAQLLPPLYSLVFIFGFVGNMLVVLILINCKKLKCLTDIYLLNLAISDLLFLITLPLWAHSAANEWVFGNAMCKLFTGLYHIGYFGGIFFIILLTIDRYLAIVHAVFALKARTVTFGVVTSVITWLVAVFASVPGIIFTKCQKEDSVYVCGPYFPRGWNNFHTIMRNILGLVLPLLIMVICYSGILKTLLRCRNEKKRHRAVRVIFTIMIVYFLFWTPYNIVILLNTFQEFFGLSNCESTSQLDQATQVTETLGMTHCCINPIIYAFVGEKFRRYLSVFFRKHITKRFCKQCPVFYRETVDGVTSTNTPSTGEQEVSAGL

A2B = molecular target: T9, A2B (Homo sapiens, UniProt P29275); experiment: FLIPR functional screen; type: cell-based; settings: antagonist mode
T9 construct: purchased Millipore (outsourced screen)
T9 sequence (P29275 whole entry): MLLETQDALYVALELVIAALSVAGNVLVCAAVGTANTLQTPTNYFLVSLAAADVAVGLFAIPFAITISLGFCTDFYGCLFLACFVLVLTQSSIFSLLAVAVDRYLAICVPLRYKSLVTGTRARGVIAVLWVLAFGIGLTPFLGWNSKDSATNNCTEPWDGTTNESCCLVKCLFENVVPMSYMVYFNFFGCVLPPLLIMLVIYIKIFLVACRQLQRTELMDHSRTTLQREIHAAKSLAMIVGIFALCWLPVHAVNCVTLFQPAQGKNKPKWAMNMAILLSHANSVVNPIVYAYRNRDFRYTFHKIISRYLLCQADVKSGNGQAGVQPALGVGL

M1 = molecular target: T10, M1 (Homo sapiens, UniProt P11229); experiment: FLIPR functional screen; type: cell-based; settings: antagonist mode
T10 construct: Millipore

AT1 = molecular target: T11, AT1 (Homo sapiens, UniProt P30556); experiment: FLIPR functional screen; type: cell-based; settings: antagonist mode
T11 construct: purchased Millipore (outsourced screen)

CXCR2 = molecular target: T12, CXCR2 (Homo sapiens, UniProt P25025); experiment: FLIPR functional screen; type: cell-based; settings: antagonist mode
T12 construct: Millipore

NK2 = molecular target: T13, NK2 (Homo sapiens, UniProt P21452); experiment: FLIPR functional screen; type: cell-based; settings: antagonist mode
T13 construct: Millipore
T13 sequence (P21452 whole entry): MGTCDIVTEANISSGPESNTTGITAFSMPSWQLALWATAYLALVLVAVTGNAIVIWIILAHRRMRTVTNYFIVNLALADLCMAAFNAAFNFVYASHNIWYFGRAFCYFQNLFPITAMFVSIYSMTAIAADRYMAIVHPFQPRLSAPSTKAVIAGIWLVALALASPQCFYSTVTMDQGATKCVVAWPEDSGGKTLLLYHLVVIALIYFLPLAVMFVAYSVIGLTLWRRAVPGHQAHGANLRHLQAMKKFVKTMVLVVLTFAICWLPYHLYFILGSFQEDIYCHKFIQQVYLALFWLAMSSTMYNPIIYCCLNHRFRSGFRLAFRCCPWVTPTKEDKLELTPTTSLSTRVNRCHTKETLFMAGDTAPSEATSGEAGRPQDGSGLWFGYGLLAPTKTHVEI

PK2 = molecular target: T14, PK2 (Homo sapiens, UniProt Q8NFJ6); experiment: FLIPR functional screen; type: cell-based; settings: antagonist mode
T14 construct: Millipore

Mouse CD4+ T cells = experiment: IL-23 induced Th17 expansion; type: cell-based; settings: 120 h, anti-TCR/anti-CD28 mAb and IL-23 (30 ng/ml), 5 days, FACS, read-out: IC50 for reduction of IL-23-induced Th17-producing cells
Method: IL-23 induced Th17 expansion. CD4^+ T cells were isolated from C57BL/6 mice and activated with anti-TCR (1 μg/ml plate-bound) and anti-CD28 (2 μg/ml soluble) with or without IL-23 (30 ng/ml) for 5 days. IL-17 producing cells were analyzed by IL-17 intracellular staining as described by manufacture (BD).
The effect of ER-819924-01 on IL-23-induced Th17 expansion was studied in vitro (FIG. 9). Mouse CD4^+ T cells were cultured with anti-TCR/anti-CD28 mAb and IL-23 (30 ng/ml) in the presence or absence of ER-819924-01 or anti-PGE2 Ab for 5 days. IL-17 producing T cells were analyzed by FACS of intracellular staining. ER-819924-01 reduced the number of IL-23-induced Th17-producing cells with an IC50 value of ˜10-100 nM.

CCR3 = molecular target: T15, CCR3 (Homo sapiens, UniProt P51677); experiment: FLIPR functional screen; type: cell-based; settings: antagonist mode
T15 construct: Millipore

CCR4 = molecular target: T16, CCR4 (Homo sapiens, UniProt P51679); experiment: FLIPR functional screen; type: cell-based; settings: antagonist mode
T16 construct: Millipore
T16 sequence (P51679 whole entry): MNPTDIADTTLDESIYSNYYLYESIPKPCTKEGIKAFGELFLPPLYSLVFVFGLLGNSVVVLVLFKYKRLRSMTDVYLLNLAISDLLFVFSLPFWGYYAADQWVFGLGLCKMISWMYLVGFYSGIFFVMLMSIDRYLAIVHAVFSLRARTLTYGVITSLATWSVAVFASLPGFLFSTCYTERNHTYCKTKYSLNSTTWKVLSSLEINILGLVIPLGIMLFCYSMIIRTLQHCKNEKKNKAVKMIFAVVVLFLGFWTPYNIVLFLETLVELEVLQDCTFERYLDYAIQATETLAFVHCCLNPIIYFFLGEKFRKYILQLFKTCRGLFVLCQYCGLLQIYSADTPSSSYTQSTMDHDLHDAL

CIA mouse = experiment: Suppression of arthritis development in CIA; type: in vivo
Excerpt: Suppression of arthritis development in CIA. DBA1/J mice were immunized with bCII/CFA at day 0 then boosted at day 21 with bCII/IFA. Arthritis development was monitored over the course of study. The arthritis score is as follows: 0=normal paw, score of 1=1-2 digit inflamed paws; score of 2=3 digits or 1-2 digit+wrist or ankle inflamed, score of 3=hand+more than 2 digits inflamed; and score of 4=multiple digits (3-4)+important wrist or ankle inflammation.
(A) Partial therapeutic evaluation of compounds. Active compound was given by oral dosing once daily at the dose indicated from day 20 after induction of antibodies to collagen II but before disease development. (B) Full therapeutic evaluation of compound. Active compound was given after disease was developed (from day 7 after the second immunization). (C) X-ray analysis of mouse paws from full therapeutic CIA study. X-ray score is the index of measurement of combination of osteopenia, bone erosion and new bone formation. (D) Representative X-ray radiographs.
Collagen induced arthritis model. Male DBA/1 mice were immunized intradermally at the base of the tail with 0.1 ml emulsion, containing 150 μg bovine type II collagen emulsified in Freund's complete adjuvant. Three weeks after 1st immunization, all mice were boosted with bovine type II collagen emulsified in Freund's incomplete adjuvant. The severity of arthritic symptoms in the paws of each mouse was graded according to Wood et al. in accordance with known techniques.
Several studies were performed in the mouse CIA model to evaluate anti-arthritic effects of ER-819924-01. Initially ER-819924-01 was studied in a partial therapeutic dosing regimen in which compounds were orally administered daily from day 20 (i.e. after induction of pathogenic anti-type II collagen antibodies, but before arthritis development). Arthritis score (measured as an inflammatory response index of inflamed paw) and body weight were monitored over two weeks. […] We also studied ER-819924-01 in a full therapeutic dosing regimen in which compounds were dosed after the induction of disease.

ADRB3 = molecular target: T17, ADRB3 (Homo sapiens, UniProt P13945); experiment: FLIPR functional screen; type: cell-based; settings: antagonist mode
T17 construct: purchased Millipore (outsourced screen)

V1B = molecular target: T18, V1B (Homo sapiens, UniProt P47901); experiment: FLIPR functional screen; type: cell-based; settings: antagonist mode
T18 construct: Millipore

EP2 = molecular target: T19, EP2 (Homo sapiens, UniProt P43116); experiment: FLIPR functional screen; type: cell-based; settings: antagonist mode
T19 construct: Millipore

MOTILIN = molecular target: T20, MOTILIN (Homo sapiens, UniProt O43193); experiment: FLIPR functional screen; type: cell-based; settings: antagonist mode
T20 construct: Millipore
T20 sequence (O43193 whole entry): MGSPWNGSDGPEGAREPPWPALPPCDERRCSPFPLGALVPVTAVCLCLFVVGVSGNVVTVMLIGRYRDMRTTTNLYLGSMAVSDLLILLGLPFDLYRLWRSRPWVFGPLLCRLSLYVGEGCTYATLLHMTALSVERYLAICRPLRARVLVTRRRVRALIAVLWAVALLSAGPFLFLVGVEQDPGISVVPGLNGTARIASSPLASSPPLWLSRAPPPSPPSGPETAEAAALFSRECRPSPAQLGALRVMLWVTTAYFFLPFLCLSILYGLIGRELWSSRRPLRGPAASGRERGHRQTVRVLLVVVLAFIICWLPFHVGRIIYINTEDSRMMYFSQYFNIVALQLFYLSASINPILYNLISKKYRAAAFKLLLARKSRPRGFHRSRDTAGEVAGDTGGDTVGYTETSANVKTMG

EP4 = molecular target: T21, EP4 (Homo sapiens, UniProt P35408); experiment: FLIPR functional screen; type: cell-based
T21 construct: SE302 cells that express endogenous EP4; endogenous in cells; host or cells: SE302 cells
T21 sequence (P35408 whole entry): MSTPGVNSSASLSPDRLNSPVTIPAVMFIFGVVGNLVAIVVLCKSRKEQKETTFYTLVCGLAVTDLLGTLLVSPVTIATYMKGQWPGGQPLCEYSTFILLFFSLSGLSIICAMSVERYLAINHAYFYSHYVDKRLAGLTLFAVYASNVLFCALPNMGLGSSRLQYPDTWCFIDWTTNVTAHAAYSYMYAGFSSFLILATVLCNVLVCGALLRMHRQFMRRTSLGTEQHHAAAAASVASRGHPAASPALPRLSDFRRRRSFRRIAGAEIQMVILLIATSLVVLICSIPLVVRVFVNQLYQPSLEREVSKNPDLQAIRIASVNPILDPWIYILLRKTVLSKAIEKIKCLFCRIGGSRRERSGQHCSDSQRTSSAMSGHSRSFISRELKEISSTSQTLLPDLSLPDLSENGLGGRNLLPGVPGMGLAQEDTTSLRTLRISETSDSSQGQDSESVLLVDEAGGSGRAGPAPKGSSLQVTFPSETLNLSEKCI

CXCR3 = molecular target: T22, CXCR3 (Homo sapiens, UniProt P49682); experiment: FLIPR functional screen; type: cell-based; settings: antagonist mode
T22 construct: Millipore
T22 sequence (P49682 whole entry, species assumed): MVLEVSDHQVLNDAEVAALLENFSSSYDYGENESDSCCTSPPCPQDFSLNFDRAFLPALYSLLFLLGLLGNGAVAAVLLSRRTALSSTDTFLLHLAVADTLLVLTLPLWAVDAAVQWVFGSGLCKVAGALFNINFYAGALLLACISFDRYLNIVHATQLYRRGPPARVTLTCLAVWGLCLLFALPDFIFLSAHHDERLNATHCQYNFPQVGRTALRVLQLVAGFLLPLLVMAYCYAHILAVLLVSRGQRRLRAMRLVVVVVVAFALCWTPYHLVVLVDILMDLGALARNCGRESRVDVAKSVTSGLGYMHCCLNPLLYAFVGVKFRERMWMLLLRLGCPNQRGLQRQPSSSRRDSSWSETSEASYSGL

T1 sequence (P28335 33-458): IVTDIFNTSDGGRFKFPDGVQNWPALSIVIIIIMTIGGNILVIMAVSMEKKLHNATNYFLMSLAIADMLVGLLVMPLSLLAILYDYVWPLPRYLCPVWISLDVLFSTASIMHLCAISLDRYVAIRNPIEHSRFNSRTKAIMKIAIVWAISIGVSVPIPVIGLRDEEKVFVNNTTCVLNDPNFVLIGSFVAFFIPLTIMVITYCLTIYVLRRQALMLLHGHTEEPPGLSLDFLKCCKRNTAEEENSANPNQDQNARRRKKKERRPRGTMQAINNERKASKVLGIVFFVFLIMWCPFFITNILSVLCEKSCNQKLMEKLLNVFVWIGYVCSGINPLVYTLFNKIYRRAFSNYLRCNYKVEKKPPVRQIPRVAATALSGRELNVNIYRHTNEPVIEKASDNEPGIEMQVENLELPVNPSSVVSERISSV
T2 sequence (Q9NS75 whole entry, species assumed): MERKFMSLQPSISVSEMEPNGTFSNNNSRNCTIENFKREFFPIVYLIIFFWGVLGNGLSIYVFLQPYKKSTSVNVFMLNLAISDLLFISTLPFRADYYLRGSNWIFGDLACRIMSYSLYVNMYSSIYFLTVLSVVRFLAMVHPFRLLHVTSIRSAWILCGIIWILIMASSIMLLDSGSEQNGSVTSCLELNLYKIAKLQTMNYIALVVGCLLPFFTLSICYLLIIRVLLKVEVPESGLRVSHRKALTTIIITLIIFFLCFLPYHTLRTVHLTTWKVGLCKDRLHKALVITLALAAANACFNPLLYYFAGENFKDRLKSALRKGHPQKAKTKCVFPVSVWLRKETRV

CCN1C(=O)N2Cc3cc(OC)cc(OC)c3[C@@H](C)C=C2C12CCN(Cc1cccn1C)CC2 [ER-819924-01]
inhibition at 1 µM (5-HT2C): -12.5%
inhibition at 1 µM (CYSLT2): 4.5%
inhibition at 1 µM (GIPR): -14.9%
inhibition at 1 µM (CCR8): 2.9%
inhibition at 1 µM (S1P3): 8.9%
inhibition at 1 µM (S1P1): 3.9%
inhibition at 1 µM (CX3CR1): 1.7%
inhibition at 1 µM (CCR2B): 3.7%
inhibition at 1 µM (A2B): 6.9%
inhibition at 1 µM (M1): 3.6%
inhibition at 1 µM (AT1): -1.5%
inhibition at 1 µM (CXCR2): 1.2%
inhibition at 1 µM (NK2): 2.1%
inhibition at 1 µM (PK2): -3.8%
IC50 (Mouse CD4+ T cells): 10 to 100 nM
inhibition at 1 µM (CCR3): -5.6%
inhibition at 1 µM (CCR4): -13.4%
X-ray score (CIA mouse; 30 mg/kg, separate study): significantly improved X-ray score
ED50 (CIA mouse; Mus musculus, 480 h, partial therapeutic dosing, oral daily from day 20): ~10 mg/kg
arthritis development under full therapeutic dosing (CIA mouse; dosed after induction of disease, 10 mg/kg): effectively prevented further arthritis development
inhibition at 1 µM (ADRB3): 11.4%
inhibition at 1 µM (V1B): 4.7%
inhibition at 1 µM (EP2): 4.2%
inhibition at 1 µM (MOTILIN): -0.9%
activity in FLIPR functional screen versus other GPCR's (EP4; 1 μM, Millipore outsourced data): showed activity only against the EP4 receptor
inhibition at 1 µM (EP4; antagonist mode): 100%
inhibition at 1 µM (CXCR3): 3.2%
